Assay results: patent publication US8853274B1, “Compositions and methods for targeting glioblastomas cells” (Vanderbilt University, priority 2011, dated 2014)

Tests used:
Assay type in all cases: cell-based, human
T4302 CD133+ cells [1] = test: Caspase 3/7 activation (apoptosis); conditions: for apoptotic cell death: following 3-Gy X-ray radiation, 2 μM DAPT or 0.5 μM L685,458
Protocol: (A) T4302 CD133+ GBM stem cells were enriched from freshly collected subcutaneous xenograft tumors, cultured in stem cell media. Cells were left unirradiated or irradiated at 3 Gy. The relative mRNA levels of Hes2 were determined by quantitative real-time PCR at the time points as indicated. (B) T4302 CD133+ cells were pre-treated with vehicle (DMSO), 2 μM DAPT or 0.5 μM L685,458 for 4 hours and irradiated as indicated. Cells were then plated to form neurospheres. Fourteen days after plating, neurospheres containing more than 50 cells were scored. To determine the surviving fractions, the number of neurosphere at each radiation dose was normalized to that of the corresponding sham-irradiated group. (C) T4302 CD133+ cells were treated with GSIs±radiation as indicated. Relative caspase 3/7 activities were determined by normalizing caspase activities to the corresponding cell numbers. (D), (E) T4302 CD133+ cells were infected with lentivirus directing expression of non-targeting shRNA or shRNAs specific to Notch1 or Notch2 (KD-Notch1 or KD-Notch2), and selected with puromycin. Relative caspase 3/7 activities and clonogenic survival were determined as described above. (F) T4302 CD133+ cells were infected with control lentivirus or lentivirus directing expression of NICD2. Clonogenic survival was determined as described above. *: p<0.05 by Student's t-test; #: p<0.01 by one-way ANOVA.
(A, B) T4302 CD133+ cells were treated with 100 nM RO4929097 (GSI) and/or 100 nM tipifarnib (FTI) for 4 hours prior to 3 Gy radiation. (A) Cell growth on day 5 and (B) caspase 3/7 activation on day 3 were determined as described in FIG. 4. #: p<0.001 by one-way ANOVA, combo vs. single agents. (C) The effects of GSIs and FTI against growth of T4302 CD133− cells were determined as described in panel A. (D, E) T4302 CD133+ cells were treated with GSI, FTI, or a 1:1 mixture at different concentrations (ranging from 3000 nM to ˜0.5 nM, 1:3 dilution)±3 Gy radiation. Cell viability was determined at 5 days after treatment in comparison to vehicle-treated groups. […] (F) T4302 CD 133+ cells were treated by GSI±FTI with a 2-fold dilution. Neurospheres were countered on day 10, and normalized to the vehicle-treated group.

T4302 CD133+ cells [2] = test: Neurosphere formation (clonogenic survival); conditions: following 3-Gy X-ray radiation; 2 μM DAPT or 0.5 μM L685,458, 4 h pre-treatment
Protocol: (A) T4302 CD133+ GBM stem cells were enriched from freshly collected subcutaneous xenograft tumors, cultured in stem cell media. Cells were left unirradiated or irradiated at 3 Gy. The relative mRNA levels of Hes2 were determined by quantitative real-time PCR at the time points as indicated. (B) T4302 CD133+ cells were pre-treated with vehicle (DMSO), 2 μM DAPT or 0.5 μM L685,458 for 4 hours and irradiated as indicated. Cells were then plated to form neurospheres. Fourteen days after plating, neurospheres containing more than 50 cells were scored. […] Relative caspase 3/7 activities were determined by normalizing caspase activities to the corresponding cell numbers. […] Relative caspase 3/7 activities and clonogenic survival were determined as described above. […] Clonogenic survival was determined as described above. *: p<0.05 by Student's t-test; #: p<0.01 by one-way ANOVA.
(A, B) T4302 CD133+ cells were treated with 100 nM RO4929097 (GSI) and/or 100 nM tipifarnib (FTI) for 4 hours prior to 3 Gy radiation. (A) Cell growth on day 5 and (B) caspase 3/7 activation on day 3 were determined as described in FIG. 4. #: p<0.001 by one-way ANOVA, combo vs. single agents. […] Cell viability was determined at 5 days after treatment in comparison to vehicle-treated groups. […]

CD133+ GBM stem cells = test: Growth inhibition within 5 days, panel of glioblastoma xenograft samples; conditions: 5-day period; in combination with 3 Gy radiation
Protocol: CD133+ cells were derived from multiple glioblastoma xenograft samples as indicated. The growth inhibitory effects by GSI and/or FTIs were determined as described in FIG. 5.
Therefore, effective killing of GBM stem cells may delay or even prevent tumor recurrence. […] In combination with radiation, GSIs or FTIs alone reduced cell numbers by ˜75%.

GBM 44 = test: Growth inhibition at day 5, spheroid GBM culture
Protocol: (A) Known genetic features of selected GBM samples. WT: wild type; Amp: amplification; vIII: EGFRvIII; ND: not determined. (B) Spheroid GBM cultures were derived from freshly collected subcutaneous tumors and cultured for 2 weeks in stem cell media to enrich stem cell-like cancer cells. SF7225 was maintained as a primary spheroid culture. Growth inhibition at day 5 after treatment was determined as described in FIG. 5. *: p<0.01 by Student's t-test and growth inhibition ≧30% vs. the corresponding vehicle-treated groups. #: p<0.01 and >30% growth inhibition vs. the radiation only groups.
Work is now extended to a set of subcutaneous GBM xenografts (GBM) established by Dr. Jann Sarkaria and colleagues at Mayo Clinic. These samples are known to have mutational status of EGFR, p53 and PTEN and different radiosensitivity (FIG. 8A) (69-71). Because the cancer stem cell identity of CD133+ of the Mayo Clinic samples has not been validated by functional assays, the present inventor used the neurosphere culture that is widely utilized as a surrogate of GSCs for its ability to enrich GSC-like population (72, 73). Tumor response to GSI, FTI and/or radiation was determined as growth inhibition on day 5 after treatment, with a greater than 30% cell number reduction was defined as positive response mimicking the RECIST criteria (FIG. 8B). […] Therefore, the present inventor will continuously expand the GBM panel and determine the genomic features of all samples with focus on prevalent GBM-associated aberrations. On the basis of this molecularly characterized tumor panel, the present inventor will start to explore the potential biomarkers that may predict tumor response to the combination therapy of radiation, GSI and FTI by experiments described in herein.

| SMILES | apoptotic cell death (T4302 CD133+ cells [1]) | clonogenic survival (T4302 CD133+ cells [2]) | growth inhibition / reduction of cell numbers (CD133+ GBM stem cells) [%] | increase of caspase 3/7 activity compared with the sham-treated group (T4302 CD133+ cells [1]; following 3-Gy radiation, 100 nM, day 3) | growth inhibition on day 5 (GBM 44; 0 Gy) [%] | growth inhibition on day 5 (GBM 44; 3 Gy) [%] |
| --- | --- | --- | --- | --- | --- | --- |
| CC(C)C[C@H](NC(=O)[C@H](Cc1ccccc1)C[C@@H](O)[C@H](Cc1ccccc1)NC(=O)OC(C)(C)C)C(=O)N[C@@H](Cc1ccccc1)C(N)=O [L-685,458] | increased apoptotic cell death | reduced clonogenic survival | – | – | – | – |
| C[C@H](NC(=O)Cc1cc(F)cc(F)c1)C(=O)N[C@H](C(=O)OC(C)(C)C)c1ccccc1 [DAPT] | increased apoptotic cell death | reduced clonogenic survival | – | – | – | – |
| Cn1cncc1[C@@](N)(c1ccc(Cl)cc1)c1ccc2c(c1)c(-c1cccc(Cl)c1)cc(=O)n2C [tipifarnib] | – | – | ~75 | approximately 2 fold | 23.4±6.4 | 42±7.2 |
